Data published in US20030108622A1, “Cancer treatment composition and method using signal transduction modulators and natural plant essential oils as synergists for conventional treatments” (EcoSMART Technologies, Inc., priority 1998, published 2003).

Experiments:
Type in all cases: cell-based, human
MCF-7 cells [1] = experiment: Effect of FK or GM on TX efficacy against E2-induced cell proliferation, 3H-thymidine incorporation (Example 3)
Description: In another experiment cells were treated with 10 nM E2 (=2.7 ng E2/ml) with three concentraion of GM (1, 5 and 10 ng/ml) 24 hours prior to cell proliferation assessment. Tamoxifen (TX) was used in parallel as positive control. Cell proliferation was measured using ^3H-thymidine incorporation. The study was done in triplicate and a control was used with solvent only. Control received solvent only at <0.1% ethanol.

MCF-7 cells [2] = experiment: Dose-response of signal transduction modulators on E2-induced cell proliferation, 3H-thymidine incorporation (Example 2)
Description: Dose-response of Signal Transduction Modulators on E2-Induced Cell Proliferation To determine the impact of two key signaling proteins, cAMP/PKA system and tyrosine kinase family member, c-Src kinase (p^src60) on estrogen-induced cell proliferation in human epithelial breast cancer cells, MCF-7 cells were cultured in growth DMEM medium supplemented with 10% fetal bovine serum (FBS). At 85% confluence, cells were sub-cultured in 5% FBS serum stripped medium, phenol red free for 24 hours prior to the treatment of the test chemical. […] Tamoxifen (TX) was used in parallel as positive control. Cell proliferation was measured using ^3H-thymidine incorporation. The study was done in triplicate and a control was used with solvent only. Control received solvent only at <0.1% ethanol.

MCF-7 cells [3] = experiment: Cell growth without E2, 5 days, cell count using trypan blue exclusion (Examples 5-7); conditions: mixtures with TX; conclusion from the Examples, FIGS. 6-9
Description: MCF-7 cells were cultured in growth DMEM medium supplemented with 10% fetal bovine serum (FBS). At 85% confluence, cells were sub-cultured in 5% FBS serum stripped medium, phenol red free for 24 hours prior to the treatment of the test chemical. Cells were treated with and without a mixture of either 5 μM FK […] and 1 μM TX (=0.56 ug TX/ml) or a mixture of 1 μM TX (=0.56 ug TX/ml) and 1 μM FK. Cell growth was measured 5 days following treatment. Cell growth was determined by cell count using trypan blue exclusion. The study was done in duplicate and a control was used with solvent only. Control received solvent only at <0.1% ethanol.
MCF-7 cells were cultured in growth DMEM medium supplemented with 10% fetal bovine serum (FBS). At 85% confluence, cells were sub-cultured in 5% FBS serum stripped medium, phenol red free for 24 hours prior to the treatment of the test chemical. Cells were treated with and without a mixture of either 5 ng GM/ml and 5 μM TX (=2.8 ug TX/ml) or a mixture of 10 ng GM/ml and 5 μM TX (=2.8 ug TX/ml). Cell growth was measured 5 days following treatment. Cell growth was determined by cell count using trypan blue exclusion. […]
MCF-7 cells were cultured in growth DMEM medium supplemented with 10% fetal bovine serum (FBS). […] Cell growth was measured 5 days following treatment. Cell growth was determined by cell count using trypan blue exclusion. […]

MCF-7 cells [4] = experiment: Time-course of E2-induced cell growth, cell count using trypan blue exclusion (Example 4); conditions: TX 1 μM alone + E2 10 nM; calculated on control value, FIG. 4
Description: Effect of cAMP Inducer on Efficacy and Stability of Tamoxifen MCF-7 cells were cultured in growth DMEM medium supplemented with 10% fetal bovine serum (FBS). At 85% confluence, cells were sub-cultured in 5% FBS serum stripped medium, phenol red free for 24 hours prior to the treatment of the test chemical. Cells were treated with 10 nM E2 (=2.7 ng E2/ml) with and without a mixture of 1 μM FK and 1 μM TX. Cell growth was measured 1, 2 and 5 days following treatment. Cell growth was determined by cell count using trypan blue exclusion. The study was done in duplicate and a control was used with solvent only. Control received solvent only at <. 1% ethanol.

MCF-7 cells [5] = experiment: Dose-response of tamoxifen on E2-induced cell proliferation, 3H-thymidine incorporation (Example 1)
Description: Dose-Response of Tamoxifen on Estrogen (E2)-Induced Cell Proliferation MCF-7 cells were cultured in growth DMEM medium supplemented with 10% fetal bovine serum (FBS). […] […] Cell proliferation was measured using ^3H-thymidine incorporation. The study was done in triplicate and a control was used with solvent only. Control received solvent only at <0.1% ethanol.
In Table 1, percentage of control is calculated either based on the control (solvent only, ethanol 0.1%) or based on the E2 values which is between parenthesis.

[6] = TX 5 μM + E2 10 nM, based on solvent control
[7] = TX 5 μM + E2 10 nM, value in parenthesis, based on E2 value
[8] = TX 10 μM + E2 10 nM, based on solvent control

Structure (SMILES): COC1=C2C[C@@H](C)C[C@H](OC)[C@H](O)[C@@H](C)/C=C(\C)[C@H](OC(N)=O)[C@@H](OC)/C=C\C=C(/C)C(=O)NC(=CC1=O)C2=O [GM, geldanamycin]
- activity at 0.001 µg/mL (MCF-7 cells [1]; Homo sapiens, MCF7, Table 4: GM 1 ng/ml, E2 10 nM = 100, read-out: 3H-Thymidine incorporation/μg protein (% of control)): 100%
- activity at 0.005 µg/mL (MCF-7 cells [1]; Homo sapiens, MCF7, Table 4: GM 5 ng/ml, E2 10 nM = 100, read-out: 3H-Thymidine incorporation/μg protein (% of control)): 100%
- activity at 0.01 µg/mL (MCF-7 cells [1]; Homo sapiens, MCF7, Table 4: GM 10 ng/ml, E2 10 nM = 100, read-out: 3H-Thymidine incorporation/μg protein (% of control)): 90%
- % protection (MCF-7 cells [1]; Table 4: GM 1 ng/ml, E2 10 nM = 100): 0%
- % protection (MCF-7 cells [1]; Table 4: GM 5 ng/ml, E2 10 nM = 100): 0%
- % protection (MCF-7 cells [1]; Table 4: GM 10 ng/ml, E2 10 nM = 100): 10%
- 3H-Thymidine incorporation/μg protein (% of control) (MCF-7 cells [2]; GM 1 ng/ml in the presence of 10 nM E2): no effect
- 3H-Thymidine incorporation/μg protein (% of control) (MCF-7 cells [2]; GM 5 ng/ml in the presence of 10 nM E2): no effect
- inhibition of the E2-induced cell proliferation (MCF-7 cells [2]; GM 10 ng/ml): did not inhibit
- % protection (MCF-7 cells [2]; GM 10 ng/ml in the presence of 10 nM E2): 6%
- activity at 0.01 µg/mL (MCF-7 cells [2]; Homo sapiens, MCF7, GM 10 ng/ml in the presence of 10 nM E2, read-out: 3H-Thymidine incorporation/μg protein (% of control)): 94%

Structure (SMILES): COc1cccc(-c2cc(=O)c3ccccc3o2)c1N [PD98059]
- synergy with the anticancer activity of tamoxifen in breast cancer cells (MCF-7 cells [3]): synergize the anticancer activity of tamoxifen

Structure (SMILES): CC/C(=C(\c1ccccc1)c1ccc(OCCN(C)C)cc1)c1ccccc1 [TX, tamoxifen]
- time over which the E2 action is antagonized (MCF-7 cells [4]): up to 48 hr
- activity at 1 µM (MCF-7 cells [5]; Homo sapiens, MCF7, TX 1 μM, without E2, based on solvent control): 42%
- activity at 5 µM (MCF-7 cells [5]; Homo sapiens, MCF7, TX 5 μM, without E2, based on solvent control): 36%
- activity at 10 µM (MCF-7 cells [5]; Homo sapiens, MCF7, TX 10 μM, without E2, based on solvent control): 33%
- 3H-thymidine incorporation dpm (MCF-7 cells [5]; TX 1 μM + E2 10 nM): 12336 dpm
- 3H-thymidine incorporation dpm/μg protein (MCF-7 cells [5]; TX 1 μM + E2 10 nM): 379.6 dpm/μg protein
- 3H-thymidine incorporation % of control (MCF-7 cells [5]; TX 1 μM + E2 10 nM, based on solvent control): 124%
- % protection (based on E2 value) (MCF-7 cells [5]; TX 1 μM + E2 10 nM, value in parenthesis, based on E2 value): (21) %
- 3H-thymidine incorporation dpm (MCF-7 cells [5]; TX 1 μM, without E2): 2586 dpm
- 3H-thymidine incorporation dpm/μg protein (MCF-7 cells [5]; TX 1 μM, without E2): 129.3 dpm/μg protein
- % protection (MCF-7 cells [5]; TX 1 μM, without E2): 58%
- 3H-thymidine incorporation dpm (MCF-7 cells [5]; TX 5 μM + E2 10 nM): 4007 dpm
- 3H-thymidine incorporation dpm/μg protein (MCF-7 cells [5]; TX 5 μM + E2 10 nM): 260.2 dpm/μg protein
- 3H-thymidine incorporation % of control (MCF-7 cells [5]; [6]): 85%
- % protection (MCF-7 cells [5]; [6]): 15%
- 3H-thymidine incorporation % of control (based on E2 value) (MCF-7 cells [5]; [7]): 53%
- % protection (based on E2 value) (MCF-7 cells [5]; [7]): 47%
- 3H-thymidine incorporation dpm (MCF-7 cells [5]; TX 5 μM, without E2): 1848 dpm
- 3H-thymidine incorporation dpm/μg protein (MCF-7 cells [5]; TX 5 μM, without E2): 112.0 dpm/μg protein
- % protection (MCF-7 cells [5]; TX 5 μM, without E2): 64%
- 3H-thymidine incorporation dpm (MCF-7 cells [5]; TX 10 μM + E2 10 nM): 3239 dpm
- 3H-thymidine incorporation dpm/μg protein (MCF-7 cells [5]; TX 10 μM + E2 10 nM): 118.5 dpm/μg protein
- 3H-thymidine incorporation % of control (MCF-7 cells [5]; [8]): 39%
- % protection (MCF-7 cells [5]; [8]): 61%
- % protection (based on E2 value) (MCF-7 cells [5]; TX 10 μM + E2 10 nM, value in parenthesis, based on E2 value): 75%
- 3H-thymidine incorporation dpm (MCF-7 cells [5]; TX 10 μM, without E2): 1545 dpm
- 3H-thymidine incorporation dpm/μg protein (MCF-7 cells [5]; TX 10 μM, without E2): 99.8 dpm/μg protein
- % protection (MCF-7 cells [5]; TX 10 μM, without E2): 67%
- antagonistic action against the E2-induced cell proliferation (MCF-7 cells [5]; TX 1-10 μM, Table 1): dose-dependent
- potency against the E2-induced cell proliferation (MCF-7 cells [5]; low concentrations 0.56 ug/ml to 2.8 ug/ml (=1 - 5 μM)): potent
- protection against the biological activity of E2 (MCF-7 cells [1]; 1 μM TX alone, FIG. 2): ~25%
- protection against the E2-induced cancer cell growth (MCF-7 cells [1]; 5 μM TX alone, FIG. 2): 45%
- activity at 5 µM (MCF-7 cells [1]; Homo sapiens, MCF7, Table 4: 5 μM TX + E2, E2 10 nM = 100, read-out: 3H-Thymidine incorporation/μg protein (% of control)): 54%
- % protection (MCF-7 cells [1]; Table 4: 5 μM TX + E2 (TX alone)): 46%
- antiestrogenic action (MCF-7 cells [2]; 1-10 μM, Table 2): dose-dependent
- activity at 1 µM (MCF-7 cells [2]; Homo sapiens, MCF7, TX 1 μM in the presence of 10 nM E2, read-out: 3H-Thymidine incorporation/μg protein (% of control)): 79%
- activity at 5 µM (MCF-7 cells [2]; Homo sapiens, MCF7, TX 5 μM in the presence of 10 nM E2, read-out: 3H-Thymidine incorporation/μg protein (% of control)): 54%
- activity at 10 µM (MCF-7 cells [2]; Homo sapiens, MCF7, TX 10 μM in the presence of 10 nM E2, read-out: 3H-Thymidine incorporation/μg protein (% of control)): 25%
- % protection (MCF-7 cells [2]; TX 1 μM in the presence of 10 nM E2): 21%
- % protection (MCF-7 cells [2]; TX 5 μM in the presence of 10 nM E2): 46%
- % protection (MCF-7 cells [2]; TX 10 μM in the presence of 10 nM E2): 75%

Structure (SMILES): C=C[C@@]1(C)CC(=O)[C@]2(O)[C@@]3(C)[C@@H](O)CCC(C)(C)[C@@H]3[C@H](O)[C@H](OC(C)=O)[C@@]2(C)O1 [FK, forskolin]
- % protection (MCF-7 cells [2]; FK 1 μM in the presence of 10 nM E2): 66%
- % protection (MCF-7 cells [2]; FK 5 μM in the presence of 10 nM E2): 78%
- % protection (MCF-7 cells [2]; FK 10 μM in the presence of 10 nM E2): 86%
- activity at 1 µM (MCF-7 cells [2]; Homo sapiens, MCF7, FK 1 μM in the presence of 10 nM E2, read-out: 3H-Thymidine incorporation/μg protein (% of control)): 34%
- activity at 5 µM (MCF-7 cells [2]; Homo sapiens, MCF7, FK 5 μM in the presence of 10 nM E2, read-out: 3H-Thymidine incorporation/μg protein (% of control)): 22%
- activity at 10 µM (MCF-7 cells [2]; Homo sapiens, MCF7, FK 10 μM in the presence of 10 nM E2, read-out: 3H-Thymidine incorporation/μg protein (% of control)): 14%
